The assay concerns the target T1, Phosphatidylinositol 4,5-bisphosphate 3-kinase catalytic subunit delta isoform (Homo sapiens, UniProt O00329).
T1 sequence (O00329 whole entry): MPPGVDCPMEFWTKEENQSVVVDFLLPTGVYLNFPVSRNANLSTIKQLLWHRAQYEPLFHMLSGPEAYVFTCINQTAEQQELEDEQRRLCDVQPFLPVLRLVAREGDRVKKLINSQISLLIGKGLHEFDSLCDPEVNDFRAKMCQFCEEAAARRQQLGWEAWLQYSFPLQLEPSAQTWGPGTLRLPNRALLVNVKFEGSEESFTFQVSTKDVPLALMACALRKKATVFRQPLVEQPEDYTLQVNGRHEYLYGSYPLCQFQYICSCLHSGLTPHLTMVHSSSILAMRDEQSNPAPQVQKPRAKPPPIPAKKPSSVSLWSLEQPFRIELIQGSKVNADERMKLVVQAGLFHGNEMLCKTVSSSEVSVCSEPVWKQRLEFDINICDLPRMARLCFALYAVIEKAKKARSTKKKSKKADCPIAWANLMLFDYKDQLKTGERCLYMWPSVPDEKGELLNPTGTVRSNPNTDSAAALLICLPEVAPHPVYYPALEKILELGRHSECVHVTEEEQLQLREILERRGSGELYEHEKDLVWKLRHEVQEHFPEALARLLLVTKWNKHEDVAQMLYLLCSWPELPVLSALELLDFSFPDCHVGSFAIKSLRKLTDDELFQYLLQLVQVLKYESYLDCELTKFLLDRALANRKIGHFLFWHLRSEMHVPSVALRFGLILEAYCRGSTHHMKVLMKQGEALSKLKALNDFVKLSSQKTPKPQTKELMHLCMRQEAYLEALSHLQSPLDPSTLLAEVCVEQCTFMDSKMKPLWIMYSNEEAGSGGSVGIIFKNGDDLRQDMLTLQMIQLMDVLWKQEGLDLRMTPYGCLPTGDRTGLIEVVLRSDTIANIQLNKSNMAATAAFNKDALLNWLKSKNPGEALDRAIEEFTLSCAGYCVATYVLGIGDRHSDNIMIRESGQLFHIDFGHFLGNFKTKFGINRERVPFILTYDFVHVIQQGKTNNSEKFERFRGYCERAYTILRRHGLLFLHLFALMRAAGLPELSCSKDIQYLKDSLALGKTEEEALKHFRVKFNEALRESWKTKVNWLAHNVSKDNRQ
Kind of assay: A2 PI3Kdelta Scintillation Proximity Assay. The note with it: pH 6.7; 25 °C. The method, then:
PI3K isoforms α, β, δ and γ are purchased from Millipore (Bedford, Mass.). […] Inhibitors are first diluted serially in DMSO and added to the plate wells before the addition of other reaction components. The final concentration of DMSO in the assay is 0.5%. The PI3K assays are carried out at room temperature in 20 mM MOPS, pH 6.7, 10 mM MgCl2, 5 mM DTT and CHAPS 0.03%. The reaction mixture is prepared containing 50 μM PIP2, kinase and varying concentration of inhibitors. […] Reactions are incubated for 180 minutes and terminated by the addition of 100 μL of 1 M potassium phosphate pH 8.0, 30 mM EDTA quench buffer. A 100 μL aliquot of the reaction solution are then transferred to 96-well Millipore MultiScreen IP 0.45 μm PVDF filter plate (The filter plate is prewetted with 200 μL 100% ethanol, distilled water, and 1 M potassium phosphate pH 8.0, respectively). […] After drying by aspiration and blotting, the plate is air dried in an incubator at 37° C. overnight. Packard TopCount adapter (Millipore) is then attached to the plate followed with addition of 120 μL Microscint 20 scintillation cocktail (Perkin Elmer) in each well. After the plate sealing, the radioactivity of the product is determined by scintillation counting on Topcount (Perkin-Elmer). […]
For orientation: Scintillation proximity formats need no separation of bound from free tracer.

The IC50 is the concentration that inhibits the measured activity by half. As to `COc1c(C(C)n2nc(C)c3c(N)ncnc32)cc(Cl)c(C)c1C1CN(CC(F)F)C1` (single isomer, unassigned) [US9707233, 112], the 50% inhibitory concentration (IC50) was less than 10 nM. `CCOc1c(C(C)n2nc(C)c3c(N)ncnc32)cc(Cl)c(C#N)c1C1CN(C(C)(C)C(=O)N(C)C)C1` (single isomer, unassigned) [US9707233, 241] returned a concentration for half-maximal inhibition (IC50) of less than 10 nM.

The record behind these values is BindingDB's records for patent US9707233 (Incyte Holdings Corporation, 2017).
